# Assay results taken from US9914730B2, “Azaquinazoline inhibitors of Atypical protein Kinase C” (Ignyta, Inc., priority 2012, dated 2018).
# pIC50: −log10 of the molar value.
# Biological target: T1, full-length human PKCι (Homo sapiens, UniProt P41743)
# T1 construct: Recombinant, full-length human PKCι expressed in Sf21 insect cells is also commercially available; purchased; host or cells: Sf21 insect cells
# T1 sequence (P41743 1-596): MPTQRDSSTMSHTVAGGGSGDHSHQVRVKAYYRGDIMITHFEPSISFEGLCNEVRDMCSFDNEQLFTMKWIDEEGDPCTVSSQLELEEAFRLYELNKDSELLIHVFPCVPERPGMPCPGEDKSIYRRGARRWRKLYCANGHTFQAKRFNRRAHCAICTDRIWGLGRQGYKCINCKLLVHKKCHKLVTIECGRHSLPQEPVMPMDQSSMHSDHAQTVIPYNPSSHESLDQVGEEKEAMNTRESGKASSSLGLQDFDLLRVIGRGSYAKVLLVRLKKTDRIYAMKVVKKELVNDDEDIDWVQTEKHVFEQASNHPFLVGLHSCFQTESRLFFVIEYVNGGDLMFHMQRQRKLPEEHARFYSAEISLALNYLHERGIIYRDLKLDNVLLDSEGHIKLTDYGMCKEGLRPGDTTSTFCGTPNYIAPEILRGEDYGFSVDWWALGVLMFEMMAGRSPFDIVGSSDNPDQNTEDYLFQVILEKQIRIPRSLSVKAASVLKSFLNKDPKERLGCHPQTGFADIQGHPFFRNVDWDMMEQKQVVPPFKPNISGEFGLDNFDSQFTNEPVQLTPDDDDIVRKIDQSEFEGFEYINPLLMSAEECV
# Assay: PKCι IC50 IMAP assay, full-length PKCι at 150 μM ATP
# Assay type: biochemical
# Conditions: read-out: IC50 in IMAP assay against full length PKCi at 150 μM ATP
# Method in brief: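 Full-length hPKCι (Sf21) ~15 pM; 5FAM-peptide 100 nM; ATP 150 μM (5× KM^APP); tris pH7.5/MgCl2/EGTA/DTT/Triton, 4% DMSO; 60 min RT; IMAP stop, 2 h; FP 485/530 nm; IC50 from % inhibition curves.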
row,Compound,pIC50
1,"N[C@H](CNc1nc(-c2ccncc2)nc2c(-c3cccc(-c4ccn[nH]4)c3)nccc12)Cc1ccccc1 [Example 120, N-[(2S)-2-amino-3-phenylpropyl]-8-[3-(1H-pyrazol-5-yl)phenyl]-2-(pyridin-4-yl)pyrido[3,4-d]pyrimidin-4-amine]",5.00 to 6.00
2,"c1ccc(COCc2cncc3nc(-c4ccncc4)nc(N4CCNCC4)c23)cc1 [Example 140, 1-{5-[(benzyloxy)methyl]-2-(pyridin-4-yl)pyrido[3,4-d]pyrimidin-4-yl}piperazine]",6.00 to 7.00
3,"COc1cncc2nc(-c3ccnc(NC(=O)C4CC4)c3)nc(N3CCNCC3)c12 [Example 216, Cyclo-propane-carboxylic acid[4-(5-methoxy-4-piperazin-1-yl-pyrido[3,4-d]pyrimidin-2-yl)-pyridin-2-yl]-amide]",> 7.00
4,"COc1cncc2nc(-c3ccnc(Nc4ccccc4)c3)nc(N3CCNC(C(F)(F)F)C3)c12 (stereo not drawn) [Example 231, {4-[5-Methoxy-4-(3-trifluoromethyl-piperazin-1-yl)-pyrido[3,4-d]pyrimidin-2-yl]-pyridin-2-yl}-phenyl-amine]",4.40 to 5.00
5,"C[C@@H](Nc1cc(-c2nc(N3CCNCC3)c3c(C4CC4)cncc3n2)ccn1)c1ccccc1 [Example 586, [4-(5-Cyclopropyl-4-piperazin-1-yl-pyrido[3,4-d]pyrimidin-2-yl)-pyridin-2-yl]-((R)-1-phenyl-ethyl)-amine]",> 7.00
6,"Clc1cccc(Cl)c1Nc1cc(-c2nc(N3CCNCC3)c3c(C4CC4)cncc3n2)ccn1 [Example 539, [4-(5-Cyclopropyl-4-piperazin-1-yl-pyrido[3,4-d]pyrimidin-2-yl)-pyridin-2-yl]-(2,6-dichloro-phenyl)-amine]",> 7.00
7,"COc1cncc2nc(-c3ccnc(Nc4nccs4)c3)nc(N3CCNCC3)c12 [Example 219, [4-(5-Methoxy-4-piperazin-1-yl-pyrido[3,4-d]pyrimidin-2-yl)-pyridin-2-yl]-thiazol-2-yl-amine]",6.00 to 7.00
8,"COc1cc2nccc(-c3nc(N4CCNCC4)c4c(C5CC5)cncc4n3)c2cc1OC [Example 579, 5-Cyclopropyl-2-(6,7-dimethoxy-quinolin-4-yl)-4-piperazin-1-yl-pyrido[3,4-d]pyrimidine]",4.40 to 5.00
9,"NC(=O)COc1cccc(Nc2cc(-c3nc(N[C@@H]4CCNC4)c4ccncc4n3)ccn2)c1 [Example 311, 2-(3-{4-[4-((R)-Pyrrolidin-3-ylamino)-pyrido[3,4-d]pyrimidin-2-yl]-pyridin-2-ylamino}-phenoxy)-acetamide]",> 7.00
10,"N[C@H](CNc1nc(-c2ccncc2)nc2c(-c3ccc4[nH]cnc4c3)nccc12)Cc1ccccc1 [Example 116, N-[(2S)-2-amino-3-phenylpropyl]-8-(1H-1,3-benzodiazol-5-yl)-2-(pyridin-4-yl)pyrido[3,4-d]pyrimidin-4-amine]",5.00 to 6.00
11,"COc1cncc2nc(-c3ccnc(Nc4ccc(N5CCOCC5)cc4C)c3)nc(N3CCNCC3)c12 [Example 383, [4-(5-Methoxy-4-piperazin-1-yl-pyrido[3,4-d]pyrimidin-2-yl)-pyridin-2-yl]-(2-methyl-4-morpholin-4-yl-phenyl)-amine]",> 7.00
12,"Fc1cc(C2CC2)cc(F)c1Nc1cc(-c2nc(N3CCNCC3)c3c(C4CC4)cncc3n2)ccn1 [Example 603, (4-Cyclopropyl-2,6-difluoro-phenyl)-[4-(5-cyclopropyl-4-piperazin-1-yl-pyrido[3,4-d]pyrimidin-2-yl)-pyridin-2-yl]-amine]",> 7.00
13,"COc1cncc2nc(-c3ccnc(Nc4ccc(C(F)(F)F)nc4)c3)nc(N3CCNCC3)c12 [Example 395, [4-(5-Methoxy-4-piperazin-1-yl-pyrido[3,4-d]pyrimidin-2-yl)-pyridin-2-yl]-(6-trifluoromethyl-pyridin-3-yl)-amine]",6.00 to 7.00
14,"Cc1cccc(Nc2cc(-c3nc(N4CCNCC4)c4c(C5CC5)cncc4n3)ccn2)c1Cl [Example 568, (2-Chloro-3-methyl-phenyl)-[4-(5-cyclopropyl-4-piperazin-1-yl-pyrido[3,4-d]pyrimidin-2-yl)-pyridin-2-yl]-amine]",> 7.00
15,"Clc1cnc(-c2cc[nH]n2)c2nc(-c3ccncc3)nc(N3CCNCC3)c12 [Example 141, 5-Chloro-4-piperazin-1-yl-8-(1H-pyrazol-3-yl)-2-pyridin-4-yl-pyrido[3,4d]pyrimidine]",6.00 to 7.00
16,"COc1cncc2nc(-c3ccncc3)nc(N3CC[C@@H](N)C3)c12 [Example 45, (3R)-1-[5-methoxy-2-(pyridin-4-yl)-pyrido[3,4-d]-pyrimidin-4-yl]-pyrrolidin-3-amine]",5.00 to 6.00
17,"COc1cncc2nc(-c3ccnc(Nc4cccc(F)c4F)c3)nc(N3CCNCC3)c12 [Example 439, (2,3-Difluoro-phenyl)-[4-(5-methoxy-4-piperazin-1-yl-pyrido[3,4-d]pyrimidin-2-yl)-pyridin-2-yl]-amine]",> 7.00
18,"N[C@H](CNc1nc(-c2ccncc2F)nc2cnccc12)Cc1ccccc1 [Example 10, N-[(2S)-2-amino-3-phenylpropyl]-2-(3-fluoropyridin-4-yl)pyrido[3,4-d]-pyrimidin-4-amine]",6.00 to 7.00

# The next lines start with the values.
row,pIC50,Compound
1,> 7.00,"Clc1c[nH]c2nccc(-c3nc(N4CCNCC4)c4c(C5CC5)cncc4n3)c12 [Example 2087, 2-(3-Chloro-1H-pyrrolo[2,3-b]pyridin-4-yl)-5-cyclopropyl-4-piperazin-1-yl-pyrido[3,4-d]pyrimidine]"
2,> 7.00,"O[C@@H]1Cc2ccccc2[C@H]1Nc1cc(-c2nc(N3CCNCC3)c3c(C4CC4)cncc3n2)ccn1 [Example 2143, (1R,2R)-1-[4-(5-Cyclopropyl-4-piperazin-1-yl-pyrido[3,4-d]pyrimidin-2-yl)-pyridin-2-ylamino]-indan-2-ol]"
3,6.00 to 7.00,"O[C@@H]1CN(c2nc(-c3ccnc4[nH]c(C(F)(F)F)cc34)nc3cncc(C4CC4)c23)CC[C@@H]1O (racemic) [Example 1234, (+/−)-(cis)-1-[5-Cyclopropyl-2-(2-trifluoromethyl-1H-pyrrolo[2,3-b]pyridin-4-yl)-pyrido[3,4-d]pyrimidin-4-yl]-piperidine-3,4-diol]"
4,> 7.00,"Fc1cc(F)nc(Nc2cc(-c3nc(N4CCNCC4)c4c(C5CC5)cncc4n3)ccn2)c1 [Example 836, [4-(5-Cyclopropyl-4-piperazin-1-yl-pyrido[3,4-d]pyrimidin-2-yl)-pyridin-2-yl]-(4,6-difluoro-pyridin-2-yl)-amine]"
5,> 7.00,"CC(Nc1cc(-c2nc(N3CCNCC3)c3c(C4CC4)cncc3n2)ccn1)c1cnn(C)c1 (stereo not drawn) [Example 730, [4-(5-Cyclopropyl-4-piperazin-1-yl-pyrido[3,4-d]pyrimidin-2-yl)-pyridin-2-yl]-[1-(1-methyl-1H-pyrazol-4-yl)-ethyl]-amine]"
6,> 7.00,"CC(Nc1cc(-c2nc(N3CCNCC3)c3c(C4CC4)cncc3n2)ccn1)C1CCCO1 (stereo not drawn) [Example 2066, [4-(5-Cyclopropyl-4-piperazin-1-yl-pyrido[3,4-d]pyrimidin-2-yl)-pyridin-2-yl]-[1-(tetrahydro-furan-2-yl)-ethyl]-amine]"
7,> 7.00,"c1cc(-c2nc(N3CCNCC3)c3c(C4CCC4)cncc3n2)c2cc(C3CCCCC3)[nH]c2n1 [Example 2153, 5-Cyclobutyl-2-(2-cyclohexyl-1H-pyrrolo[2,3-b]pyridin-4-yl)-4-piperazin-1-yl-pyrido[3,4-d]pyrimidine]"
8,6.00 to 7.00,"c1ccc2c(c1)[nH]c1nccc(-c3nc(N4CCNCC4)c4c(C5CCC5)cncc4n3)c12 [Example 2090, 4-(5-Cyclobutyl-4-piperazin-1-yl-pyrido[3,4-d]pyrimidin-2-yl)-9H-pyrido[2,3-b]indole]"
9,> 7.00,"FC(F)(F)C1(c2cc3c(-c4nc(N5CCNCC5)c5c(C6CC6)cncc5n4)ccnc3[nH]2)CCC1 [Example 2207, 5-Cyclopropyl-4-piperazin-1-yl-2-[2-(1-trifluoromethyl-cyclobutyl)-1H-pyrrolo[2,3-b]pyridin-4-yl]-pyrido[3,4-d]pyrimidine]"
10,> 7.00,"CC1(C)CC(Nc2cc(-c3nc(N4CCNCC4)c4c(C5CC5)cncc4n3)ccn2)c2ccccc21 (stereo not drawn) [Example 2177, [4-(5-Cyclopropyl-4-piperazin-1-yl-pyrido[3,4-d]pyrimidin-2-yl)-pyridin-2-yl]-(3,3-dimethyl-indan-1-yl)-amine]"
11,> 7.00,"C[C@H]1CN(c2nc(-c3ccnc(Nc4ncccc4F)c3)nc3cncc(C4CC4)c23)CCN1 [Example 800, {4-[5-Cyclopropyl-4-((S)-3-methyl-piperazin-1-yl)-pyrido[3,4-d]pyrimidin-2-yl]-pyridin-2-yl}-(3-fluoro-pyridin-2-yl)-amine]"
12,> 7.00,"Cn1nc(Nc2cc(-c3nc(N4CCNCC4)c4c(C5CC5)cncc4n3)ccn2)c2ccccc21 [Example 2061, [4-(5-Cyclopropyl-4-piperazin-1-yl-pyrido[3,4-d]pyrimidin-2-yl)-pyridin-2-yl]-(1-methyl-1H-indazol-3-yl)-amine]"
